Source: ChEMBL document CHEMBL1201862, “PubChem BioAssay data set” (2004)
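Assay format: 96-well plates, 48-hour exposure. GI50: concentration for 50% inhibition of growth.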 Active and inactive are the calls of the source. No stated cut-off is given here; in the data, active = GI50 up to about 1.1 µM and inactive = higher.

Experiments:
Experiment in all cases: growth of human tumour cells (NCI), 48 h
DU-145 = test system: DU-145
HT-29 = test system: HT-29
A498 = test system: A498
SF-268 = test system: SF-268
SNB-75 = test system: SNB-75
KM12 = test system: KM12
MCF7 = test system: MCF7
MDA-MB-435 = test system: MDA-MB-435
T47D = test system: T47D
NCI/ADR-RES = test system: NCI/ADR-RES
M14 = test system: M14
TK-10 = test system: TK-10
EKVX = test system: EKVX
SK-OV-3 = test system: SK-OV-3
SN12C = test system: SN12C
CCRF-CEM = test system: CCRF-CEM
MDA-MB-231 = test system: MDA-MB-231
NCI-H460 = test system: NCI-H460
SK-MEL-28 = test system: SK-MEL-28
HCT-15 = test system: HCT-15
SNB-19 = test system: SNB-19
OVCAR-8 = test system: OVCAR-8
786-0 = test system: 786-0
ACHN = test system: ACHN
IGROV-1 = test system: IGROV-1
SF-295 = test system: SF-295
HOP-62 = test system: HOP-62
BT-549 = test system: BT-549
HOP-92 = test system: HOP-92
UO-31 = test system: UO-31
UACC-257 = test system: UACC-257
HCT-116 = test system: HCT-116
MDA-N = test system: MDA-N
SK-MEL-2 = test system: SK-MEL-2
PC-3 = test system: PC-3
LOX IMVI = test system: LOX IMVI
RXF 393 = test system: RXF 393
OVCAR-5 = test system: OVCAR-5
COLO 205 = test system: COLO 205
SK-MEL-5 = test system: SK-MEL-5
SF-539 = test system: SF-539
K562 = test system: K562
NCI-H23 = test system: NCI-H23
CAKI-1 = test system: CAKI-1
SW-620 = test system: SW-620
U-251 = test system: U-251
Malme-3M = test system: Malme-3M
UACC-62 = test system: UACC-62
HCC 2998 = test system: HCC 2998
A549 = test system: A549
RPMI-8226 = test system: RPMI-8226
OVCAR-3 = test system: OVCAR-3
SR = test system: SR
HL-60 = test system: HL-60
OVCAR-4 = test system: OVCAR-4
MOLT-4 = test system: MOLT-4
NCI-H226 = test system: NCI-H226
Hs-578T = test system: Hs-578T
NCI-H522 = test system: NCI-H522

## Cc1c(F)c(N)c2c(=O)cc(-c3ccc(NC(=O)[C@@H](N)CCCCN)c(F)c3)oc2c1F
DU-145
  GI50: 13.7 µM (inactive)
HT-29
  GI50: 13.1 µM (inactive)
A498
  GI50: 0.0537 µM (active)
SF-268
  GI50: 11.9 µM (inactive)
SNB-75
  GI50: 4.68 µM (inactive)
KM12
  GI50: 9.33 µM (inactive)
MCF7
  GI50: 0.033 µM (active)
MDA-MB-435
  GI50: 7.21 µM (inactive)
T47D
  GI50: 0.159 µM (active)
NCI/ADR-RES
  GI50: 21.4 µM (inactive)
M14
  GI50: 16.4 µM (inactive)
TK-10
  GI50: 0.134 µM (active)
EKVX
  GI50: 6.68 µM (inactive)
SK-OV-3
  GI50: 15.1 µM (inactive)
SN12C
  GI50: 14.9 µM (inactive)
CCRF-CEM
  GI50: 3.52 µM (inactive)
MDA-MB-231
  GI50: 13.2 µM (inactive)
NCI-H460
  GI50: 0.101 µM (active)
SK-MEL-28
  GI50: 13.2 µM (inactive)
HCT-15
  GI50: 11.2 µM
SNB-19
  GI50: 18.4 µM (inactive)
OVCAR-8
  GI50: 11 µM (inactive)
786-0
  GI50: 9.31 µM (inactive)
ACHN
  GI50: 12.9 µM (inactive)
IGROV-1
  GI50: 0.0418 µM (active)
SF-295
  GI50: 15.6 µM (inactive)
HOP-62
  GI50: 7.59 µM (inactive)
BT-549
  GI50: 24.4 µM (inactive)
HOP-92
  GI50: 18.6 µM (inactive)
UO-31
  GI50: 7.83 µM (inactive)
UACC-257
  GI50: 0.242 µM (active)
HCT-116
  GI50: 2.88 µM (inactive)
MDA-N
  GI50: 7.26 µM (inactive)
SK-MEL-2
  GI50: 21.3 µM (inactive)
PC-3
  GI50: 15.3 µM (inactive)
LOX IMVI
  GI50: 8.83 µM (inactive)
RXF 393
  GI50: 18.2 µM (inactive)

## Oc1ccc(Br)cc1/C=N/c1c(NC2CCCCC2)oc2ccc(Br)cc12
DU-145
  GI50: 60.3 µM (inactive)
HT-29
  GI50: 26.8 µM (inactive)
OVCAR-5
  GI50: 63.1 µM (inactive)
A498
  GI50: 35.3 µM (inactive)
SF-268
  GI50: 33.2 µM (inactive)
COLO 205
  GI50: > 10 µM (inactive)
SNB-75
  GI50: 37.2 µM (inactive)
KM12
  GI50: 21 µM (inactive)
SK-MEL-5
  GI50: 40.6 µM (inactive)
MCF7
  GI50: 16.2 µM (inactive)
MDA-MB-435
  GI50: 35.5 µM (inactive)
SF-539
  GI50: 61.2 µM (inactive)
K562
  GI50: 10.7 µM (inactive)
NCI-H23
  GI50: 15.5 µM (inactive)
T47D
  GI50: 8.34 µM (inactive)
NCI/ADR-RES
  GI50: 45.5 µM (inactive)
CAKI-1
  GI50: 36.8 µM (inactive)
SW-620
  GI50: 35.3 µM (inactive)
U-251
  GI50: 34.9 µM (inactive)
Malme-3M
  GI50: 31.7 µM (inactive)
TK-10
  GI50: 40.6 µM (inactive)
UACC-62
  GI50: 38.6 µM (inactive)
EKVX
  GI50: 45.1 µM (inactive)
HCC 2998
  GI50: 35.8 µM (inactive)
SK-OV-3
  GI50: 87.5 µM (inactive)
A549
  GI50: 54 µM (inactive)
SN12C
  GI50: 44.4 µM (inactive)
CCRF-CEM
  GI50: 4.1 µM (inactive)
RPMI-8226
  GI50: 7.18 µM (inactive)
MDA-MB-231
  GI50: 61.5 µM (inactive)
NCI-H460
  GI50: 50.5 µM (inactive)
SK-MEL-28
  GI50: 41.5 µM (inactive)
HCT-15
  GI50: 25.1 µM
SNB-19
  GI50: > 100 µM (inactive)
OVCAR-3
  GI50: 18.2 µM (inactive)
OVCAR-8
  GI50: 37.4 µM (inactive)
786-0
  GI50: 37.8 µM (inactive)
ACHN
  GI50: 35.8 µM (inactive)
IGROV-1
  GI50: 56.4 µM (inactive)
SF-295
  GI50: 47.4 µM (inactive)
SR
  GI50: 45.9 µM (inactive)
HOP-62
  GI50: 68.4 µM (inactive)
BT-549
  GI50: 25.5 µM (inactive)
HL-60
  GI50: 5.53 µM (inactive)
UO-31
  GI50: 31 µM (inactive)
UACC-257
  GI50: 37.8 µM (inactive)
HCT-116
  GI50: 13.7 µM (inactive)
MDA-N
  GI50: 32.6 µM (inactive)
OVCAR-4
  GI50: 38 µM (inactive)
MOLT-4
  GI50: 7.21 µM (inactive)
NCI-H226
  GI50: 45.3 µM (inactive)
LOX IMVI
  GI50: 18.3 µM (inactive)
RXF 393
  GI50: 12.9 µM (inactive)

## Cc1nc2c(sc3nc4c(cc32)CCC4)c(=O)o1
DU-145
  GI50: > 100 µM (inactive)
HT-29
  GI50: 36.7 µM (inactive)
OVCAR-5
  GI50: > 95.1 µM (inactive)
A498
  GI50: > 100 µM (inactive)
SF-268
  GI50: 49.7 µM (inactive)
COLO 205
  GI50: 54.6 µM (inactive)
SNB-75
  GI50: > 68.4 µM (inactive)
KM12
  GI50: > 87.1 µM (inactive)
SK-MEL-5
  GI50: 37.5 µM (inactive)
MCF7
  GI50: > 81.3 µM (inactive)
MDA-MB-435
  GI50: 36.6 µM (inactive)
SF-539
  GI50: 40.5 µM (inactive)
K562
  GI50: 57.9 µM (inactive)
NCI-H23
  GI50: 67.9 µM (inactive)
T47D
  GI50: > 78 µM (inactive)
NCI/ADR-RES
  GI50: > 56.1 µM (inactive)
CAKI-1
  GI50: > 100 µM (inactive)
Hs-578T
  GI50: 45.9 µM (inactive)
SW-620
  GI50: > 59.7 µM (inactive)
U-251
  GI50: > 83.2 µM (inactive)
NCI-H522
  GI50: 31 µM (inactive)
M14
  GI50: 64.3 µM (inactive)
TK-10
  GI50: > 64.6 µM (inactive)
UACC-62
  GI50: > 100 µM (inactive)
EKVX
  GI50: > 100 µM (inactive)
HCC 2998
  GI50: 28.6 µM (inactive)
SK-OV-3
  GI50: > 100 µM (inactive)
A549
  GI50: > 50.5 µM (inactive)
SN12C
  GI50: 98.2 µM (inactive)
CCRF-CEM
  GI50: 40.8 µM (inactive)
RPMI-8226
  GI50: 48.9 µM (inactive)
MDA-MB-231
  GI50: > 92.5 µM (inactive)
NCI-H460
  GI50: > 59.8 µM (inactive)
SK-MEL-28
  GI50: 46.7 µM (inactive)
HCT-15
  GI50: 34.4 µM
SNB-19
  GI50: > 53.2 µM (inactive)
OVCAR-3
  GI50: 37.8 µM (inactive)
OVCAR-8
  GI50: 36.1 µM (inactive)
786-0
  GI50: > 72.4 µM (inactive)
ACHN
  GI50: > 66.7 µM (inactive)
IGROV-1
  GI50: 20.6 µM (inactive)
SF-295
  GI50: > 100 µM (inactive)
SR
  GI50: 39.3 µM (inactive)
HOP-62
  GI50: > 100 µM (inactive)
HL-60
  GI50: 49.9 µM (inactive)
HOP-92
  GI50: > 50.1 µM (inactive)
UO-31
  GI50: > 56.1 µM (inactive)
UACC-257
  GI50: 89.1 µM (inactive)
HCT-116
  GI50: 32.8 µM (inactive)
MDA-N
  GI50: 38.7 µM (inactive)
OVCAR-4
  GI50: 32.4 µM (inactive)
SK-MEL-2
  GI50: > 100 µM (inactive)
PC-3
  GI50: > 100 µM (inactive)
MOLT-4
  GI50: 41.9 µM (inactive)
NCI-H226
  GI50: > 96.2 µM (inactive)
LOX IMVI
  GI50: 41.4 µM (inactive)
RXF 393
  GI50: > 100 µM (inactive)
